How the values were obtained:
[1] = system: zelluläre Immunantwort (DTH-Reaktion) gegen Schafserythrozyten; assay: Delayed type hypersensitivity (DTH) reaction against sheep erythrocytes, foot swelling in mice; assay type: in vivo, NMRI-Mäuse; conditions: relative to maximal activation by compound of Beispiel 8 = 100 %; Dosis 100 mg/kg, 1 x i.p. Tag 0
[2] = system: Maus-Peritonealmakrophagen; assay: Pinocytosis of colloidal gold (198Au) by peritoneal macrophages from treated mice; assay type: in vivo, NMRI-Mäuse; conditions: uptake of colloidal 198Au
Procedure: (§1) Hier wurde der Einfluß der nach Ausführungsbeispiel 8 erhaltenen Prüfsubstanz auf die Stimulation von Peritonealmakrophagen bei 6- 8 Wochen alten NMRI-Mäusen untersucht. Mäuseweibchen erhielten auf parenteralem oder oralem Wege die Prüfsubstanz in einer Dosis von 25 mg/kg, 50 mg/kg, 100 mg/kg und 200 mg/kg. Der Kontrollgruppe wurde gepufferte Kochsalzlösung verabreicht. Drei Tage nach den Injektionen wurden die Mäuse getötet, und es wurden die Peritonealmakrophagen der Tiere auf ihren Aktivierungszustand hin untersucht. Als Maß der Makrophagenaktivierung wurde zum einen die Sekretion der lyosomalen Enzyme (ß-Galactosidase, ß-Glucuronidase, N-Acetyl-ß-D-Glucosaminidase) bestimmt. Auf der anderen Seite konnte in vergleichbaren Makrophagenkulturen die Pinozytose durch die Aufnahme von kolloidalem Gold (^19^8Au) - wie sie dem Fachmann bekannt ist - untersucht werden. Die Höhe des oxidativen Stoffwechsels bei Makrophagen gilt als ein weiteres Maß für ihren Aktivierungszustand. Gemessen wird diese Aktivität unter Zuhilfenahme des Biolumaten durch Bestimmung der Chemolumineszenz.
(§2) Zu diesem Zweck wurden entweder in Petrischalen von 30 mm Durchmesser 3 x 10^6 Makrophagen mit 1 ml TC 199-Kulturmedium oder aber 10^6 Makrophagen mit 100 µl in Rundbogen-Polyäthylen-Röhrchen (zur Bestimmung der Chemolumineszenz) bei 5 % G02 und 37°C kultiviert.
(§3) Nach einstündiger Bebrütung wurden die Kulturen gewaschen, um schwimmende Zellen zu entfernen. Die Chemolumineszenz (Röhrchenkultur) wurde dann direkt bestimmt, während die Petrischalen erneut 24 Stunden bei 37°C bebrütet wurden und danach die Enzym- und Pinozytoseaktivität in den Kulturen bestimmt wurde. Es wurden die nachstehenden Ergebnisse erzielt.
Die quantitative Bestimmung der Pinozytoseaktivität bei mononukleären Phagozyten wurde nach der Methode von Davies et al. durchgeführt (Davies, P. Allison, A.C. und Haswell, A.D.; Biochem. Biophys. Res. Com. 52, 627, 1973). Dazu wurde radioaktives, kolloidales Gold (^198Au) mit einer Partikelgröße von 20 nm und einer spezifischen Aktivität von 4-12 mCl/mg Au benutzt. Die Ergebnisse in Tabelle 4 veranschaulichen den Effekt der nach Beispiel 8 erhaltenen Prüfsubstanz auf die Endozytoseleistung. Die Pinozytose von kolloidalem Gold (^19^8Au) durch Maus-Peritonealmakrophagen von mit der erfindungsgemäßen Verbindung behandelten Tieren ist im Vergleich mit den Makrophagen von unbehandelten Tieren signifikant und dosisabhängig erhöht.

[3] = system: Maus-Peritonealmakrophagen; assay: Activation of mononuclear phagocytes: release of lysosomal hydrolases (exocytosis) by peritoneal macrophages from treated mice; assay type: in vivo, NMRI-Mäuse; conditions: for N-Ac-Glu: N-Acetyl-ß-D-Glucosaminidase in culture supernatant; for ß-Gal: ß-Galactosidase in culture supernatant; for ß-Glu: ß-Glucuronidase in culture supernatant
Procedure: as §1, §2, §3
Aus der Tabelle 3 ist zu entnehmen, daß Makrophagen von Kontrollmäusen nur geringe Mengen an lysosomalen Enzymen (ß-Glucuronidase, ß-Galactosidase, N-Acetyl-ß-D-Glucosaminidase) in den Kulturüberstand abgeben. Mononukleare Phagozyten von Mäusen, die parenteral oder oral mit der Prüfsubstanz 72 Stunden behandelt wurde, sezernieren die o.a. sauren Hydrolasen (ß-Glu, ß-Gal, N-Ac-Glu) deutlich mehr und weisen damit eine Dosiswirkungskurve auf, die bei allen gemessenen Enzymen eine Überlegenheit gegenüber den Kontrollen erkennen läßt. Es ist ersichtlich, daß die Prüfsubstanz eine stimulierende Wirkung auf die Makrophagenaktivität besitzt und zur Erhöhung der Enzymfreisetzung beiträgt.
(§4) Wie im Experiment 2 beschrieben, wurden NMRI-Mäuse mit den erfindungsgemäßen Verbindungen behandelt.
(§5) Als Test zur Erfassung der Immunstimulation wurde die Funktion der Makrophagen (Chemolumineszenz und Enzymaktivität) überprüft.
(§6) Tabelle 8 zeigt die relative Wirksamkeit der Prüfsubstanzen bezogen auf die Verbindung aus Beispiel 8, deren maximale Aktivierung (Differenz zwischen Kontrolle und Stimulation) 100 % entspricht. Der Tabelle ist zu entnehmen, daß im Vergleich zu Makrophagen aus unbehandelten Tieren, diese Zellen auch durch alle Prüfsubstanzen in ihrer Chemolumineszenzreaktion stark stimuliert und in ihrem Gehalt an lysosomalen Enzymen deutlich erhöht waren.

[4] = system: Maus-Peritonealmakrophagen; assay: Activation of mononuclear phagocytes: oxidative metabolism (chemiluminescence) of peritoneal macrophages from treated mice; assay type: in vivo, NMRI-Mäuse; conditions: relative to maximal activation by compound of Beispiel 8 = 100 %; 100 mg/kg i.p.
Procedure: as §1, §2, §3
Die parenterale sowie die orale Behandlung von NMRI-Mäusen mit der gemäß Beispiel 8 hergestellten Prüfsubstanz stimuliert die Makrophagenaktivität und hat damit eine immunitätstimulierende Wirkung. So wird der oxidative Stoffwechsel bei Makrophagen mit der Generierung von Sauerstoffradikalen und dem damit verbundenen meßbaren Licht deutlich erhöht. Bei Dosierungen von 25 mg/kg aufwärts kommt es zu einer dosisabhänigen Steigerung der Makrophagenaktivität sowohl bei parenteraler als auch oraler Applikation.
as §4, §5, §6

B16-Melanom = assay: Tumour defence against B16 melanoma (lung metastases after removal of primary tumour), survival time; assay type: in vivo, C57B1/6 Mäusen; conditions: control 26 Tagen
Procedure: Bei weiblichen C57B1/6 Mäusen (10 Tiere/Gruppe) mit einem Gewicht von 18 - 20 g wurde mit 2 x 10^5 lebenden B16-Melanomzellen ein Primärtumorwachstum induziert. Nach Ausprägung einer bestimmten Tumorgröße (0.65 cm im Durchmesser) wurde der Primärtumor entfernt. Die unbehandelten Tiere starben dann an Metastasen in der Lunge. Nach der Tumorinduktion wurden die Tiere an den Tagen 3, 5, 7, 9, 11, und 13 nach Amputation des Primärtumors mit 50, 100 und 200 mg/kg der nach Beispiel 8 erhaltenen Prüfsubstanz intraperitoneal behandelt. Aus der Absterberate nach Amputation des Primärtumors durch die Entwicklung von Lungenmetastasen lassen sich entsprechend die mittleren ffberlebenszeiten berechnen. Danach sterben die Tiere der Kontrollgruppe zu 50 % nach 26 Tagen. Die mit der Prüfsubstanz behandelten Gruppen zeigten (vgl. Tabelle 10) mit den entsprechenden Dosierungen eine signifikante Erhöhung der mittleren Überlebenszeit auf 43, 40 und 35 Lage.

Cc1nc(SSc2nc(C)c(CC(=O)O)s2)sc1CC(=O)O [Beispiel 8, Bis-(5-Carboxymethyl-4-methyl-thiazol-2-yl)-disulfid]
DTH-Reaktion (SRBC) [1]: 100%
Pinozytoseleistung von Mausmakrophagen ([2]; 1 x 25 mg/kg intraperitoneal): 0,341 " " x 10^3 cpm
Pinozytoseleistung von Mausmakrophagen ([2]; 1 x 25 mg/kg oral): 0,272 " " x 10^3 cpm
Pinozytoseleistung von Mausmakrophagen ([2]; 1 x 50 mg/kg intraperitoneal): 0,396 " " x 10^3 cpm
Pinozytoseleistung von Mausmakrophagen ([2]; 1 x 50 mg/kg oral): 0,358 " " x 10^3 cpm
Pinozytoseleistung von Mausmakrophagen ([2]; 1 x 100 mg/kg intraperitoneal): 0,462 " " x 10^3 cpm
Pinozytoseleistung von Mausmakrophagen ([2]; 1 x 100 mg/kg oral): 0,416 " " x 10^3 cpm
Pinozytoseleistung von Mausmakrophagen ([2]; 1 x 200 mg/kg intraperitoneal): 0,587 " " x 10^3 cpm
Pinozytoseleistung von Mausmakrophagen ([2]; 1 x 200 mg/kg oral): 0,506 " " x 10^3 cpm
N-Ac-Glu ([3]; 1 x 25 mg/kg i.p.): 2786 mU/ml
N-Ac-Glu ([3]; 1 x 25 mg/kg p.o.): 1947 mU/ml
N-Ac-Glu ([3]; 1 x 50 mg/kg i.p.): 3315 mU/ml
N-Ac-Glu ([3]; 1 x 50 mg/kg p.o.): 2862 mU/ml
N-Ac-Glu ([3]; 1 x 100 mg/kg i.p.): 4305 mU/ml
N-Ac-Glu ([3]; 1 x 100 mg/kg p.o.): 3676 mU/ml
N-Ac-Glu ([3]; 1 x 200 mg/kg i.p.): 6548 mU/ml
N-Ac-Glu ([3]; 1 x 200 mg/kg p.o.): 5621 mU/ml
Makrophagenaktivität Exozytose ([3]; lysosomal enzyme activity, relative to maximal activation by compound of Beispiel 8 = 100 %, 100 mg/kg i.p.): 100%
ß-Gal ([3]; 1 x 25 mg/kg i.p.): 2584 mU/ml
ß-Gal ([3]; 1 x 25 mg/kg p.o.): 4917 mU/ml
ß-Gal ([3]; 1 x 50 mg/kg i.p.): 11058 mU/ml
ß-Gal ([3]; 1 x 50 mg/kg p.o.): 9179 mU/ml
ß-Gal ([3]; 1 x 100 mg/kg i.p.): 17596 mU/ml
ß-Gal ([3]; 1 x 100 mg/kg p.o.): 13195 mU/ml
ß-Gal ([3]; 1 x 200 mg/kg i.p.): 22351 mU/ml
ß-Gal ([3]; 1 x 200 mg/kg p.o.): 17357 mU/ml
ß-Glu ([3]; 1 x 25 mg/kg i.p.): 1001 mU/ml
ß-Glu ([3]; 1 x 25 mg/kg p.o.): 897 mU/ml
ß-Glu ([3]; 1 x 50 mg/kg i.p.): 1370 mU/ml
ß-Glu ([3]; 1 x 50 mg/kg p.o.): 1133 mU/ml
ß-Glu ([3]; 1 x 100 mg/kg i.p.): 1791 mU/ml
ß-Glu ([3]; 1 x 100 mg/kg p.o.): 1593 mU/ml
ß-Glu ([3]; 1 x 200 mg/kg i.p.): 2136 mU/ml
ß-Glu ([3]; 1 x 200 mg/kg p.o.): 1886 mU/ml
Makrophagenaktivität Chemolumineszenz [4]: 100%
mittlere Überlebenszeit (B16-Melanom; 50 mg/kg intraperitoneal on days 3, 5, 7, 9, 11, 13 after amputation of primary tumour): 43 days
mittlere Überlebenszeit (B16-Melanom; 100 mg/kg intraperitoneal on days 3, 5, 7, 9, 11, 13 after amputation of primary tumour): 40 days
mittlere Überlebenszeit (B16-Melanom; 200 mg/kg intraperitoneal on days 3, 5, 7, 9, 11, 13 after amputation of primary tumour): 35 days

Reference: patent publication EP0194571A1, “Heterocyclic disulfides, process for their preparation and pharmaceutical preparations containing them” (HOECHST AKTIENGESELLSCHAFT, priority 1985, dated 1986)
